# Data published in PubChem BioAssay AID1963980 (Molecular Pharmacology Branch, DTP, NCI, 2024).
# Test system: 475296-252-R-J1-PDC spheroid viability
# Test: Anticancer human tumor 475296-252-R-J1-PDC patient-derived rectal carcinoma cell line growth inhibition [PI3K]
# Conditions: spheroids with HUVEC and MSC; for IC50: curve of first compound; for viability, T/C: stronger effect = lower value
# In short: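 Complex 3D spheroids (cancer cells + endothelial HUVEC + mesenchymal stem cells); drug pairs of targeted agent x inavolisib/alpelisib/duvelisib/copanlisib; half-log series from ~Cmax, max 10 microM if Cmax unknown; endpoint viability.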
# [1] = second compound 0.0316 µM, first compound 0.0316 µM
# [2] = second compound 0.0316 µM, first compound 0.1 µM
# [3] = second compound 0.1 µM, first compound 0.0316 µM
# [4] = second compound 0.1 µM, first compound 0.1 µM
# [5] = second compound 0.316 µM, first compound 0.0316 µM
# [6] = second compound 0.316 µM, first compound 0.1 µM
# [7] = second compound 1 µM, first compound 0.0316 µM
# [8] = second compound 1 µM, first compound 0.1 µM
# [9] = second compound 3.16 µM, first compound 0.0316 µM
# [10] = second compound 3.16 µM, first compound 0.1 µM
# [11] = second compound 10 µM, first compound 0.0316 µM
# [12] = second compound 10 µM, first compound 0.1 µM
# 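Further: spheroids exposed to agents for seven days before readout.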
smiles,measurement,setting,value
C[C@@H](NC(=O)c1ncnc(N)c1Cl)c1ncc(C(=O)Nc2cc(C(F)(F)F)c(Cl)cn2)s1 + CC(Nc1ncnc2nc[nH]c12)c1cc2cccc(Cl)c2c(=O)n1-c1ccccc1,IC50,second compound 0.0316 µM,> 10 µM
same,IC50,second compound 0.1 µM,> 10 µM
same,IC50,second compound 0.316 µM,> 10 µM
same,IC50,second compound 1 µM,> 10 µM
same,IC50,second compound 3.16 µM,> 10 µM
same,IC50,second compound 10 µM,> 10 µM
same,"viability, T/C",[1],77.6%
same,"viability, T/C",[2],90.2%
same,"viability, T/C","second compound 0.0316 µM, first compound 0.316 µM",109%
same,"viability, T/C","second compound 0.0316 µM, first compound 1 µM",114%
same,"viability, T/C","second compound 0.0316 µM, first compound 3.16 µM",102%
same,"viability, T/C","second compound 0.0316 µM, first compound 10 µM",91.5%
same,"viability, T/C",[3],91%
same,"viability, T/C",[4],92.5%
same,"viability, T/C","second compound 0.1 µM, first compound 0.316 µM",96.7%
same,"viability, T/C","second compound 0.1 µM, first compound 1 µM",109%
same,"viability, T/C","second compound 0.1 µM, first compound 3.16 µM",115%
same,"viability, T/C","second compound 0.1 µM, first compound 10 µM",92%
same,"viability, T/C",[5],89.7%
same,"viability, T/C",[6],86.4%
same,"viability, T/C","second compound 0.316 µM, first compound 0.316 µM",88.2%
same,"viability, T/C","second compound 0.316 µM, first compound 1 µM",96.7%
same,"viability, T/C","second compound 0.316 µM, first compound 3.16 µM",108%
same,"viability, T/C","second compound 0.316 µM, first compound 10 µM",92.2%
same,"viability, T/C",[7],94.4%
same,"viability, T/C",[8],90.5%
same,"viability, T/C","second compound 1 µM, first compound 0.316 µM",91%
same,"viability, T/C","second compound 1 µM, first compound 1 µM",112%
same,"viability, T/C","second compound 1 µM, first compound 3.16 µM",106%
same,"viability, T/C","second compound 1 µM, first compound 10 µM",75.5%
same,"viability, T/C",[9],89.3%
same,"viability, T/C",[10],94.8%
same,"viability, T/C","second compound 3.16 µM, first compound 0.316 µM",82%
same,"viability, T/C","second compound 3.16 µM, first compound 1 µM",102%
same,"viability, T/C","second compound 3.16 µM, first compound 3.16 µM",110%
same,"viability, T/C","second compound 3.16 µM, first compound 10 µM",67.4%
same,"viability, T/C",[11],87.7%
same,"viability, T/C",[12],84.8%
same,"viability, T/C","second compound 10 µM, first compound 0.316 µM",93.5%
same,"viability, T/C","second compound 10 µM, first compound 1 µM",92.8%
same,"viability, T/C","second compound 10 µM, first compound 3.16 µM",87.1%
same,"viability, T/C","second compound 10 µM, first compound 10 µM",63.4%
Cn1ncnc1[C@H]1c2n[nH]c(=O)c3cc(F)cc(c23)N[C@@H]1c1ccc(F)cc1 + CC(Nc1ncnc2nc[nH]c12)c1cc2cccc(Cl)c2c(=O)n1-c1ccccc1,IC50,second compound 0.0316 µM,> 0.1 µM
same,IC50,second compound 0.1 µM,> 0.1 µM
same,IC50,second compound 0.316 µM,> 0.1 µM
same,IC50,second compound 1 µM,> 0.1 µM
same,IC50,second compound 3.16 µM,> 0.1 µM
same,IC50,second compound 10 µM,> 0.1 µM
same,"viability, T/C","second compound 0.0316 µM, first compound 0.000316 µM",94.1%
same,"viability, T/C","second compound 0.0316 µM, first compound 0.001 µM",94.3%
same,"viability, T/C","second compound 0.0316 µM, first compound 0.00316 µM",87.4%
same,"viability, T/C","second compound 0.0316 µM, first compound 0.01 µM",90.7%
same,"viability, T/C",[1],107%
same,"viability, T/C",[2],96.8%
same,"viability, T/C","second compound 0.1 µM, first compound 0.000316 µM",96.5%
same,"viability, T/C","second compound 0.1 µM, first compound 0.001 µM",87.5%
same,"viability, T/C","second compound 0.1 µM, first compound 0.00316 µM",96.8%
same,"viability, T/C","second compound 0.1 µM, first compound 0.01 µM",91.6%
same,"viability, T/C",[3],95.7%
same,"viability, T/C",[4],88.9%
same,"viability, T/C","second compound 0.316 µM, first compound 0.000316 µM",91%
same,"viability, T/C","second compound 0.316 µM, first compound 0.001 µM",85.8%
same,"viability, T/C","second compound 0.316 µM, first compound 0.00316 µM",98.9%
same,"viability, T/C","second compound 0.316 µM, first compound 0.01 µM",99.5%
same,"viability, T/C",[5],102%
same,"viability, T/C",[6],106%
same,"viability, T/C","second compound 1 µM, first compound 0.000316 µM",85.8%
same,"viability, T/C","second compound 1 µM, first compound 0.001 µM",103%
same,"viability, T/C","second compound 1 µM, first compound 0.00316 µM",104%
same,"viability, T/C","second compound 1 µM, first compound 0.01 µM",103%
same,"viability, T/C",[7],112%
same,"viability, T/C",[8],92.7%
same,"viability, T/C","second compound 3.16 µM, first compound 0.000316 µM",89.7%
same,"viability, T/C","second compound 3.16 µM, first compound 0.001 µM",86%
same,"viability, T/C","second compound 3.16 µM, first compound 0.00316 µM",91%
same,"viability, T/C","second compound 3.16 µM, first compound 0.01 µM",80.7%
same,"viability, T/C",[9],90.1%
same,"viability, T/C",[10],89.8%
same,"viability, T/C","second compound 10 µM, first compound 0.000316 µM",97%
same,"viability, T/C","second compound 10 µM, first compound 0.001 µM",85%
same,"viability, T/C","second compound 10 µM, first compound 0.00316 µM",85.4%
same,"viability, T/C","second compound 10 µM, first compound 0.01 µM",90.7%
same,"viability, T/C",[11],95.2%
same,"viability, T/C",[12],83.7%
